Measurements published in ChEMBL document CHEMBL1201862, “PubChem BioAssay data set” (2004).
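Results reflect a 48-hour exposure of cells in 96-well plates to compound at five concentrations. At the GI50, growth is halved.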 The source made the active and inactive calls. Rule as the data show it: active = GI50 up to about 1.1 µM and inactive = higher.

Key:
Test in all cases: NCI tumour cell line growth inhibition, 48 h
[1] = test system: HCT-15
[2] = test system: DU-145
[3] = test system: SK-MEL-2
[4] = test system: DMS-273
[5] = test system: SF-268
[6] = test system: PC-3
[7] = test system: HOP-62
[8] = test system: RXF 393
[9] = test system: K562
[10] = test system: UACC-257
[11] = test system: OVCAR-3
[12] = test system: HOP-18
[13] = test system: NCI-H23
[14] = test system: SF-295
[15] = test system: HCT-116
[16] = test system: SK-MEL-5
[17] = test system: OVCAR-4
[18] = test system: UACC-62
[19] = test system: NCI/ADR-RES
[20] = test system: T47D
[21] = test system: SNB-78
[22] = test system: A498
[23] = test system: NCI-H522
[24] = test system: MDA-N
[25] = test system: 786-0
[26] = test system: TK-10
[27] = test system: SR
[28] = test system: DMS-114
[29] = test system: DLD-1
[30] = test system: MCF7
[31] = test system: NCI-H460
[32] = test system: UO-31
[33] = test system: CAKI-1
[34] = test system: M19-MEL
[35] = test system: HCC 2998
[36] = test system: Malme-3M
[37] = test system: SW-620
[38] = test system: LOX IMVI
[39] = test system: SK-OV-3
[40] = test system: HL-60
[41] = test system: OVCAR-5
[42] = test system: A549
[43] = test system: EKVX
[44] = test system: KM-20L2
[45] = test system: ACHN
[46] = test system: MDA-MB-435
[47] = test system: CCRF-CEM
[48] = test system: IGROV-1
[49] = test system: SNB-19
[50] = test system: BT-549
[51] = test system: SN12C
[52] = test system: M14
[53] = test system: HT-29
[54] = test system: U-251
[55] = test system: Hs-578T
[56] = test system: SNB-75
[57] = test system: HOP-92
[58] = test system: RPMI-8226
[59] = test system: SF-539
[60] = test system: SK-MEL-28
[61] = test system: KM12
[62] = test system: OVCAR-8
[63] = test system: COLO 205
[64] = test system: MDA-MB-231
[65] = test system: MOLT-4
[66] = test system: LXFL 529
[67] = test system: NCI-H226
[68] = test system: XF498

Measured: GI50

Cc1c2cc[n+](CCN3CCCCC3)cc2c(C)c2c1[nH]c1ccc(O)cc12
active: [27] 0.0723 µM | [31] 0.418 µM | [34] 0.982 µM | [47] 1.11 µM | [51] 0.401 µM | [54] 0.8 µM | [56] 0.647 µM
12.5 µM: [1]
inactive: [2] 1.89 µM | [3] 11.9 µM | [4] 1.72 µM | [5] 1.4 µM | [6] 7.96 µM | [7] 2.32 µM | [8] 5.2 µM | [9] 2.69 µM | [10] 13.7 µM | [11] 6.05 µM | [12] 13.1 µM | [13] 5.46 µM | [14] 1.47 µM | [15] 2.58 µM | [16] 2.54 µM | [17] 1.13 µM | [18] 5.47 µM | [19] 16.3 µM | [20] 2.82 µM | [21] 3.75 µM | [22] 10.6 µM | [23] 1.99 µM | [24] 12.1 µM | [25] 2.41 µM | [26] 15.1 µM | [28] 1.51 µM | [29] 4.6 µM | [30] 1.76 µM | [32] 17.1 µM | [33] 5.48 µM | [35] 3.12 µM | [36] 2.39 µM | [37] 3.19 µM | [38] 4.41 µM | [39] 3.02 µM | [40] 1.69 µM | [41] 10.5 µM | [42] 1.35 µM | [43] 3.92 µM | [44] 6.43 µM | [45] 5.92 µM | [46] 10.2 µM | [48] 2.89 µM | [49] 1.16 µM | [50] 11.8 µM | [52] 9.27 µM | [53] 8 µM | [55] 2.84 µM | [57] 5.11 µM | [58] 2.48 µM | [59] 3.45 µM | [60] 6.1 µM | [61] 1.64 µM | [62] 2.04 µM | [63] 1.66 µM | [64] 9.93 µM

N/N=C1\C(=O)N(Cc2ccccc2)C(=O)C1C(=O)NCc1ccccc1 (stereo not drawn)
> 100 µM: [1]
inactive: [3] > 100 µM | [65] > 100 µM | [5] > 100 µM | [7] > 100 µM | [8] > 100 µM | [9] > 100 µM | [10] > 100 µM | [11] > 100 µM | [12] > 100 µM | [13] > 100 µM | [14] > 100 µM | [15] > 100 µM | [16] > 100 µM | [17] > 100 µM | [18] > 100 µM | [21] > 100 µM | [22] > 100 µM | [23] > 100 µM | [25] > 100 µM | [26] > 100 µM | [27] > 100 µM | [28] > 100 µM | [29] > 100 µM | [31] > 100 µM | [66] > 100 µM | [32] > 100 µM | [34] > 100 µM | [35] > 100 µM | [36] > 100 µM | [37] > 100 µM | [40] > 100 µM | [41] > 100 µM | [42] > 100 µM | [43] > 100 µM | [44] > 100 µM | [45] > 100 µM | [47] > 100 µM | [48] > 100 µM | [49] > 100 µM | [51] > 100 µM | [52] > 100 µM | [53] > 100 µM | [54] > 100 µM | [57] > 100 µM | [58] > 100 µM | [59] > 100 µM | [60] > 100 µM | [61] > 100 µM | [62] > 100 µM | [63] > 100 µM

COC(=O)C12CCC(CC1=O)C2(C)C (stereo not drawn)
> 100 µM: [1]
inactive: [65] > 100 µM | [4] > 100 µM | [7] > 100 µM | [8] > 100 µM | [9] > 100 µM | [67] > 100 µM | [10] > 100 µM | [11] > 100 µM | [12] > 100 µM | [13] > 100 µM | [14] > 100 µM | [15] > 100 µM | [16] > 100 µM | [17] > 100 µM | [18] > 100 µM | [68] > 100 µM | [22] > 100 µM | [25] > 100 µM | [26] > 100 µM | [27] > 100 µM | [28] 99.5 µM | [29] > 100 µM | [31] > 100 µM | [32] > 100 µM | [35] > 100 µM | [36] > 100 µM | [37] > 100 µM | [38] > 100 µM | [39] > 100 µM | [40] > 100 µM | [42] > 100 µM | [43] > 100 µM | [44] > 100 µM | [45] > 100 µM | [48] > 100 µM | [49] > 100 µM | [51] > 100 µM | [52] > 100 µM | [53] > 100 µM | [54] > 100 µM | [56] 40.2 µM | [57] > 100 µM | [58] > 100 µM | [59] > 100 µM | [60] > 100 µM | [62] > 100 µM | [63] > 100 µM

COCC(=O)CP(=O)(OC)OC
> 100 µM: [1]
inactive: [3] > 100 µM | [65] > 100 µM | [4] > 100 µM | [5] > 100 µM | [7] > 100 µM | [8] > 100 µM | [9] > 100 µM | [10] > 100 µM | [11] > 100 µM | [13] > 100 µM | [14] > 100 µM | [15] > 100 µM | [16] > 100 µM | [17] > 100 µM | [18] > 100 µM | [68] > 100 µM | [21] > 100 µM | [22] > 100 µM | [23] > 100 µM | [25] > 100 µM | [26] > 100 µM | [28] > 100 µM | [31] > 100 µM | [66] > 100 µM | [32] > 100 µM | [33] > 100 µM | [34] > 100 µM | [36] > 100 µM | [37] > 100 µM | [38] > 100 µM | [39] > 100 µM | [40] > 100 µM | [41] > 100 µM | [42] > 100 µM | [43] > 100 µM | [45] > 100 µM | [47] > 100 µM | [48] > 100 µM | [49] > 100 µM | [51] > 100 µM | [52] > 100 µM | [53] > 100 µM | [54] > 100 µM | [56] > 100 µM | [57] > 100 µM | [58] > 100 µM | [59] > 100 µM | [60] > 100 µM | [61] > 100 µM | [62] > 100 µM | [63] > 100 µM

CC(Oc1ccc(OCC2CCCCC2)cc1)C(=O)OCC(=O)c1ccc(-c2ccccc2)cc1 (stereo not drawn)
> 100 µM: [1]
inactive: [3] > 100 µM | [65] > 100 µM | [4] > 100 µM | [5] > 100 µM | [8] > 100 µM | [9] > 100 µM | [67] > 100 µM | [10] > 100 µM | [11] > 100 µM | [12] 22.6 µM | [13] > 100 µM | [14] > 100 µM | [15] > 100 µM | [16] > 100 µM | [17] > 100 µM | [18] > 100 µM | [68] > 100 µM | [21] > 100 µM | [22] > 100 µM | [23] > 100 µM | [25] > 100 µM | [26] > 100 µM | [28] > 100 µM | [29] > 100 µM | [31] > 100 µM | [66] > 100 µM | [32] > 100 µM | [34] > 100 µM | [35] > 100 µM | [36] > 100 µM | [38] > 100 µM | [39] > 100 µM | [40] > 100 µM | [42] > 100 µM | [45] > 100 µM | [47] > 100 µM | [48] > 100 µM | [49] > 100 µM | [51] > 100 µM | [52] > 100 µM | [53] > 100 µM | [54] > 100 µM | [56] > 100 µM | [59] > 100 µM | [60] > 100 µM | [61] > 100 µM | [62] > 100 µM
